Laboratory results as given in ChEMBL document CHEMBL1201862, “PubChem BioAssay data set” (2004).
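Where inhibition never reached the appropriate level, the endpoint shown equals the highest concentration tested. Otherwise, values were interpolated linearly from a five-concentration, 48-hour dose response in 96-well plates. At the GI50, growth is halved.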 Activity calls are given as the source filed them. No stated cut-off is given here; in the data, active = GI50 up to about 1.1 µM and inactive = higher.

Tests used:
Assay in all cases: NCI-60 cell line screen, 48 h
UACC-257 = tested on: UACC-257
CCRF-CEM = tested on: CCRF-CEM
SF-295 = tested on: SF-295
U-251 = tested on: U-251
HOP-92 = tested on: HOP-92
T47D = tested on: T47D
SF-539 = tested on: SF-539
NCI-H460 = tested on: NCI-H460
Hs-578T = tested on: Hs-578T
MDA-N = tested on: MDA-N
SNB-19 = tested on: SNB-19
ACHN = tested on: ACHN
MOLT-4 = tested on: MOLT-4
UACC-62 = tested on: UACC-62
SK-MEL-5 = tested on: SK-MEL-5
CAKI-1 = tested on: CAKI-1
A549 = tested on: A549
HL-60 = tested on: HL-60
IGROV-1 = tested on: IGROV-1
SNB-75 = tested on: SNB-75
COLO 205 = tested on: COLO 205
DU-145 = tested on: DU-145
SK-MEL-2 = tested on: SK-MEL-2
MDA-MB-231 = tested on: MDA-MB-231
OVCAR-8 = tested on: OVCAR-8
KM12 = tested on: KM12
786-0 = tested on: 786-0
HCT-15 = tested on: HCT-15
MDA-MB-435 = tested on: MDA-MB-435
OVCAR-4 = tested on: OVCAR-4
SW-620 = tested on: SW-620
OVCAR-3 = tested on: OVCAR-3
Malme-3M = tested on: Malme-3M
SK-MEL-28 = tested on: SK-MEL-28
NCI-H522 = tested on: NCI-H522
EKVX = tested on: EKVX
RPMI-8226 = tested on: RPMI-8226
M14 = tested on: M14
OVCAR-5 = tested on: OVCAR-5
BT-549 = tested on: BT-549
K562 = tested on: K562
RXF 393 = tested on: RXF 393
NCI/ADR-RES = tested on: NCI/ADR-RES
A498 = tested on: A498
NCI-H226 = tested on: NCI-H226
SN12C = tested on: SN12C
MCF7 = tested on: MCF7
SR = tested on: SR
PC-3 = tested on: PC-3
SF-268 = tested on: SF-268
HCC 2998 = tested on: HCC 2998
LOX IMVI = tested on: LOX IMVI
TK-10 = tested on: TK-10
HT-29 = tested on: HT-29
NCI-H23 = tested on: NCI-H23
HCT-116 = tested on: HCT-116
HOP-62 = tested on: HOP-62
UO-31 = tested on: UO-31
SK-OV-3 = tested on: SK-OV-3

CC1=C(C(=O)N[C@@H](Cc2ccccc2)C(=O)O)N2C(=O)[C@@H](NC(=O)[C@@H](N)CC(C)C)[C@H]2SC1
GI50 (UACC-257): > 100 µM (inactive) | GI50 (CCRF-CEM): > 100 µM (inactive) | GI50 (SF-295): > 100 µM (inactive) | GI50 (U-251): > 100 µM (inactive) | GI50 (HOP-92): > 100 µM (inactive) | GI50 (T47D): > 100 µM (inactive) | GI50 (SF-539): > 100 µM (inactive) | GI50 (NCI-H460): > 100 µM (inactive) | GI50 (Hs-578T): > 100 µM (inactive) | GI50 (MDA-N): > 100 µM (inactive) | GI50 (SNB-19): > 100 µM (inactive) | GI50 (ACHN): > 100 µM (inactive) | GI50 (MOLT-4): > 100 µM (inactive) | GI50 (UACC-62): > 100 µM (inactive) | GI50 (SK-MEL-5): > 100 µM (inactive) | GI50 (CAKI-1): > 100 µM (inactive) | GI50 (A549): > 100 µM (inactive) | GI50 (HL-60): > 100 µM (inactive) | GI50 (IGROV-1): > 100 µM (inactive) | GI50 (SNB-75): > 100 µM (inactive) | GI50 (COLO 205): > 100 µM (inactive) | GI50 (DU-145): > 100 µM (inactive) | GI50 (SK-MEL-2): > 100 µM (inactive) | GI50 (MDA-MB-231): > 100 µM (inactive) | GI50 (OVCAR-8): > 100 µM (inactive) | GI50 (KM12): > 100 µM (inactive) | GI50 (786-0): > 100 µM (inactive) | GI50 (HCT-15): > 100 µM | GI50 (MDA-MB-435): > 100 µM (inactive) | GI50 (OVCAR-4): > 100 µM (inactive) | GI50 (SW-620): > 100 µM (inactive) | GI50 (OVCAR-3): > 100 µM (inactive) | GI50 (Malme-3M): > 100 µM (inactive) | GI50 (SK-MEL-28): > 100 µM (inactive) | GI50 (NCI-H522): > 100 µM (inactive) | GI50 (EKVX): > 100 µM (inactive) | GI50 (RPMI-8226): > 100 µM (inactive) | GI50 (M14): > 100 µM (inactive) | GI50 (OVCAR-5): > 100 µM (inactive) | GI50 (BT-549): > 100 µM (inactive) | GI50 (K562): > 100 µM (inactive) | GI50 (RXF 393): > 100 µM (inactive) | GI50 (NCI/ADR-RES): > 100 µM (inactive) | GI50 (A498): > 100 µM (inactive) | GI50 (NCI-H226): > 100 µM (inactive) | GI50 (SN12C): > 100 µM (inactive) | GI50 (MCF7): > 100 µM (inactive) | GI50 (SR): > 100 µM (inactive) | GI50 (PC-3): > 100 µM (inactive) | GI50 (SF-268): > 100 µM (inactive) | GI50 (HCC 2998): > 100 µM (inactive) | GI50 (LOX IMVI): > 100 µM (inactive) | GI50 (TK-10): > 100 µM (inactive)

O=[N+]([O-])c1cc2c(c([N+](=O)[O-])c1)NCc1ccccc1O2
GI50 (UACC-257): > 100 µM (inactive) | GI50 (CCRF-CEM): 24.3 µM (inactive) | GI50 (SF-295): > 100 µM (inactive) | GI50 (U-251): 41.2 µM (inactive) | GI50 (HOP-92): > 100 µM (inactive) | GI50 (T47D): > 100 µM (inactive) | GI50 (SF-539): 69.3 µM (inactive) | GI50 (NCI-H460): > 100 µM (inactive) | GI50 (Hs-578T): 70.8 µM (inactive) | GI50 (HT-29): > 100 µM (inactive) | GI50 (MDA-N): > 100 µM (inactive) | GI50 (ACHN): > 100 µM (inactive) | GI50 (MOLT-4): 59.2 µM (inactive) | GI50 (UACC-62): > 100 µM (inactive) | GI50 (SK-MEL-5): > 100 µM (inactive) | GI50 (CAKI-1): 14.9 µM (inactive) | GI50 (A549): > 100 µM (inactive) | GI50 (HL-60): > 100 µM (inactive) | GI50 (IGROV-1): > 100 µM (inactive) | GI50 (SNB-75): 12.9 µM (inactive) | GI50 (COLO 205): > 100 µM (inactive) | GI50 (DU-145): > 100 µM (inactive) | GI50 (SK-MEL-2): 76.6 µM (inactive) | GI50 (MDA-MB-231): > 100 µM (inactive) | GI50 (OVCAR-8): 71.1 µM (inactive) | GI50 (KM12): > 100 µM (inactive) | GI50 (NCI-H23): > 100 µM (inactive) | GI50 (786-0): 43.4 µM (inactive) | GI50 (HCT-15): > 100 µM | GI50 (MDA-MB-435): > 100 µM (inactive) | GI50 (OVCAR-4): 70.5 µM (inactive) | GI50 (HCT-116): > 100 µM (inactive) | GI50 (SW-620): > 100 µM (inactive) | GI50 (HOP-62): 30.8 µM (inactive) | GI50 (OVCAR-3): > 100 µM (inactive) | GI50 (Malme-3M): > 100 µM (inactive) | GI50 (SK-MEL-28): > 100 µM (inactive) | GI50 (NCI-H522): > 100 µM (inactive) | GI50 (EKVX): > 100 µM (inactive) | GI50 (RPMI-8226): > 100 µM (inactive) | GI50 (OVCAR-5): > 100 µM (inactive) | GI50 (BT-549): > 100 µM (inactive) | GI50 (K562): > 10 µM (inactive) | GI50 (RXF 393): 16 µM (inactive) | GI50 (NCI/ADR-RES): > 100 µM (inactive) | GI50 (A498): > 100 µM (inactive) | GI50 (UO-31): > 100 µM (inactive) | GI50 (NCI-H226): > 100 µM (inactive) | GI50 (SN12C): > 100 µM (inactive) | GI50 (MCF7): > 100 µM (inactive) | GI50 (SR): 55.5 µM (inactive) | GI50 (PC-3): > 100 µM (inactive) | GI50 (SF-268): > 100 µM (inactive) | GI50 (HCC 2998): > 100 µM (inactive) | GI50 (LOX IMVI): > 100 µM (inactive) | GI50 (TK-10): > 100 µM (inactive)

COC(=O)c1n[nH]c(C)c1/N=N/N(C)CCC#N
GI50 (UACC-257): 50.7 µM (inactive) | GI50 (CCRF-CEM): 7.67 µM (inactive) | GI50 (SF-295): 24.9 µM (inactive) | GI50 (U-251): 16.7 µM (inactive) | GI50 (HOP-92): 14.7 µM (inactive) | GI50 (T47D): 14 µM (inactive) | GI50 (SF-539): 15.2 µM (inactive) | GI50 (NCI-H460): 14.2 µM (inactive) | GI50 (SK-OV-3): 19.7 µM (inactive) | GI50 (Hs-578T): 20.8 µM (inactive) | GI50 (HT-29): 23.3 µM (inactive) | GI50 (MDA-N): 47.5 µM (inactive) | GI50 (SNB-19): 28.7 µM (inactive) | GI50 (ACHN): 11.6 µM (inactive) | GI50 (MOLT-4): 3.33 µM (inactive) | GI50 (UACC-62): 15.7 µM (inactive) | GI50 (SK-MEL-5): 26.9 µM (inactive) | GI50 (CAKI-1): 11.3 µM (inactive) | GI50 (A549): 16.1 µM (inactive) | GI50 (HL-60): 27.5 µM (inactive) | GI50 (IGROV-1): 2.13 µM (inactive) | GI50 (SNB-75): 13.4 µM (inactive) | GI50 (COLO 205): 13.4 µM (inactive) | GI50 (DU-145): 15.1 µM (inactive) | GI50 (SK-MEL-2): 23.6 µM (inactive) | GI50 (MDA-MB-231): 24.8 µM (inactive) | GI50 (OVCAR-8): 14.4 µM (inactive) | GI50 (KM12): 14.8 µM (inactive) | GI50 (NCI-H23): 16.3 µM (inactive) | GI50 (786-0): 17.7 µM (inactive) | GI50 (HCT-15): 14.2 µM | GI50 (MDA-MB-435): 59.8 µM (inactive) | GI50 (OVCAR-4): 12.9 µM (inactive) | GI50 (HCT-116): 16.4 µM (inactive) | GI50 (SW-620): 14 µM (inactive) | GI50 (HOP-62): 18.8 µM (inactive) | GI50 (OVCAR-3): 18.7 µM (inactive) | GI50 (Malme-3M): 15.2 µM (inactive) | GI50 (SK-MEL-28): 29.8 µM (inactive) | GI50 (NCI-H522): 10.5 µM (inactive) | GI50 (EKVX): 13.7 µM (inactive) | GI50 (RPMI-8226): 10.2 µM (inactive) | GI50 (M14): 30.8 µM (inactive) | GI50 (BT-549): 10.9 µM (inactive) | GI50 (K562): 15.3 µM (inactive) | GI50 (RXF 393): 13.3 µM (inactive) | GI50 (NCI/ADR-RES): 16.2 µM (inactive) | GI50 (A498): 76 µM (inactive) | GI50 (UO-31): 0.301 µM (active) | GI50 (NCI-H226): 12.8 µM (inactive) | GI50 (SN12C): 16.5 µM (inactive) | GI50 (MCF7): 7.14 µM (inactive) | GI50 (SR): 5.79 µM (inactive) | GI50 (PC-3): 20 µM (inactive) | GI50 (SF-268): 15.1 µM (inactive) | GI50 (HCC 2998): 19.5 µM (inactive) | GI50 (LOX IMVI): 8.18 µM (inactive) | GI50 (TK-10): 20.9 µM (inactive)
